Source: patent publication US20110124742A1, “COMPOSITION AND METHOD OF ADIPOSE CELL DIFFERENTIATION INHIBITION” (NATIONAL YANG-MING UNIVERSITY, priority 2008, published 2011)

Columns and labels:
Type in all cases: cell-based
3T3-L1 adipose cell [1] = experiment: MTT assay, cell viability of 3T3-L1 adipose cell; details: 0.25 mM (maximal amount)
3T3-L1 adipose cell [2] = experiment: 3T3-L1 adipose cell differentiation assay, triglyceride content per unit protein; details: day 9, control 0.1% DMSO
Procedure: In the present invention, 3T3-L1 fibroblast cell is purchased from Bioresource collection and research center. Medium for 3T3-L1 fibroblast cell culture contains 10% (v/v) FBS, Dulbecco's modified Eagle's high-glucose medium containing 1% (v/v) penicillin (10000 U/ml) and streptomycin (10 mg/ml). Cell culture is performed in 37 C, 10% CO2 incubators. Subculture is performed at 80-90% cell confluence. After cell reaches 100% confluence, differentiation solution is used for differentiation. The complete differentiation takes 9 days. Differentiation solution contains 0.5 mM IBMX, 10 μg/ml insulin, 0.5 μM dexamethasone in 10% FBS DMEM. Two or three days after 3T3-L1 fibroblast cell reaching 100% confluence (day 0), the original 10% FBS DMEM is removed and differentiation solution is added. Replace cell culture medium at day 3 and day 6 with 10% FBS DMEM containing 10 μg/ml insulin. Harvest cells at day 9 of differentiation for cell morphology observation (Juan, C. C.; Chang, C. L.; Lai, Y. H.; Ho, L. T., Endothelin-1 induces lipolysis in 3T3-L1 adipocytes. Am. J. Physiol. Endocrinol. Metab. 2005, 288, E1146-52).
Mature 3T3-L1 adipose cell stores energy in the form of triglyceride of cell's oil drop. In order to study if plant essential oil is able to inhibit lipid accumulation in 3T3-L1 pre-adipose cell, we use cellular accumulated triglyceride content as an indicator of adipose cell differentiation. The examination method is as follows. Remove 3T3-L1 cell culture medium, wash cell with PBS for three times. Add protein lysis buffer (50 mM Tris-HCl, 150 mM NaCl, 0.5% sodium deoxycholate, 1% NP-40, 0.1% SDS) containing 10-fold diluted protease inhibitor into each well. Transfer mixture of scraped cells and buffer into microcentrifuge tube. Take 5 μl of homogenized cell mixture and 250 μl of reagent for reaction. The reaction is complete at room temperature in 1 hour, and then detects OD550 nm. Use OD value to calculate triglyceride concentration from a Merck multi-system calibrator generated standard curve. Determine triglyceride and protein concentration in each well, and the division of these two values (mg TG/mg protein) represents triglyceride content per unit protein in the cell. […]
Dilute Acorus essential oil (density 1.10 g/ml) to 25, 62.5, and 125 mg/ml with DMSO. Until cell growth reaches post confluence (day 0), diluted Acorus essential oil solution is added into differentiation solution in 1:1000 dilution into cell (final concentration is 25, 62.5, and 125 μg/ml). While replacing growth medium containing insulin at day 3 and day 6, replenish each concentration of Acorus essential oil in culture medium as well as the ones adding 0.1% DMSO as controls. The analysis at day 9 discovered that 25 μg/ml Acorus essential oil reduces triglyceride content per cell unit protein to 77% relative to its control. Acorus essential oil at 62.5 and 125 μg/ml essential oil reduces it to 55% and 20% relative to its control (FIG. 2a).
Ten ml of Acorus essential oil dissolved in hexane (5 ml essential oil and 5 ml hexane) is loaded into prepacked silica gel glass column and eluted by hydrophobicity (Table 2). Essential oil can be separated into 5 portions based on each component's hydrophobicity. Remove elution solvent by lypholizer, dissolve each component in 2 ml DMSO or methanol, and store it in glass vial. 3T3-L1 is used as a cell model, we add various fractions in DMSO or methanol at concentration of 50 μg/ml into cell differentiation medium and growth medium. At day 9 of complete differentiation, analyze triglyceride content per cell unit protein. […] Therefore, the second fraction has been chosen for further analysis.
After identifying the second fraction of Acorus essential oil as α-asarone and β-asarone, we further examine the effect of these two compounds on adipose cell differentiation inhibition. We dissolve α-asarone and β-asarone in DMSO to make concentration of 0.015, 0.03, 0.06, 0.13, and 0.25 M solution. […]

3T3-L1 adipose cell [3] = experiment: Oil red staining of 3T3-L1 adipose cell; details: 0.03, 0.06, 0.13, 0.25 mM, day 9
Procedure: Acorus essential oil inhibition effect on cell differentiation can be visualized under microscope by oil red staining. It is performed as follows. Dissolve 0.03 g of Oil red O in 10 ml of isopropylalcohol as stock solution. Mix 2.4 ml of stock solution and 1.6 ml of PBS and filter it before staining. Remove medium from cells, add appropriate amount of filtered staining solution for 15 minutes, wash cell three times with PBS for 5 minutes each, and then add 4% paraformaldehyde for 15 minutes to fix cells, repeat wash step by PBS. Add 0.1% Triton X-100 for 30 seconds, and repeat wash step by PBS. Add appropriate amount of hematoxylin for 30 seconds followed by one last wash step by PBS. Observe the image under a microscope and record the image.

PPARγ [4] = experiment: PPARγ mRNA expression by RT-PCR in 3T3-L1 cell; details: 3 days, GAPDH internal control
Procedure: (§1) RNA extraction: Remove 3T3-L1 cell medium directly from 10 cm petri dish, add 1 ml of Trizol reagent, and scrape off cells. Transfer cell and reagent mixture into a microcentrifuge tube. Add 200 μl chloroform in each tube and vortex for 15 seconds until it is clouded. Leave it on ice for 2-3 minutes at 4 C, spin it at 12000 rpm for 20 minutes. Transfer supernatant to another microcentrifuge tube, add equal amount of isopropylalcohol, mix and leave it on ice for 10 minutes. Spin it at 12000 rpm for 10 minutes at 4 C. After centrifugation, remove supernatant and save RNA pellet in the bottom. Add 75% cold ethanol, spin it at 7500 rpm for 10 minutes at 4 C. Remove ethanol after centrifugation and air dry the pellet until the edge is clear. Add appropriate amount of DEPC H2O to dissolve RNA pellet, and determine RNA concentration by OD260/OD280 nm with a spectrophotometer.
(§2) RT-PCR: Take 2 μg of RNA for reverse transcription reaction. Mix RNA, DEPC H2O and 0.25 μg random primer to make total volume of 12 μl. Keep it at 70 C for 10 minutes, and then leave it on ice. Add 4 μl of 5× first-strand buffer, 2 μl of 0.1 M dithiothreitol, 1 μl of 10 mM dNTP and 1 μl of SuperScript™ II reverse transcriptase 200 U/μl. Keep it at 42 C for 1.5 hours, and then heat it at 70 C for 15 minutes to stop reverse transcription. Take 1 μl of cDNA from reverse transcription, mix with 5 μl of 10×PCR buffer, 1 μl of 10 mM dNTP, 2 μl of primer, 40.5 μl of sterile water, and 0.5 μl of Taq DNA polymerase (1 U/μl) for PCR reaction. The SEQ ID NO: 1 to SEQ ID NO: 6 is listed from the top to bottom accordingly. PCR program is listed as follows: 95 C/5 min; 25˜30 cycles of 95 C/1 min, 55 C/1 min, 72 C/1 min; 72 C/10 min, and stop reaction at 4 C.
(§3) Because PPARγ and C/EBPα are early marker genes during adipose cell differentiation, these genes have been analyzed from cells harvested after 3 days of β-asarone addition. […]

C/EBPα [5] = experiment: C/EBPα protein expression by western blot in 3T3-L1 cell; details: 3 days, α-tubulin internal control
Procedure: (§4) Western blot analysis: Prepare 12% SDS-PAGE as follows. Recipe of separating gel contains 2.5 ml of 1.5 M Tris-HCl pH 8.8, 100 μl of 10% SDS, 3 ml of acrylamide/bis (37.5:1; 40%), 4.35 ml RO water, 50 μl of 10% ammonium persulfate, and 5 μl of TEMED. Recipe of stacking gel contains 1.25 ml of 0.5 M Tris-HCl pH 6.8, 50 μl of 10% SDS, 0.065 ml of acrylamide/bis (37.5:1; 40%), 3.05 ml of RO water, 25 μl of APS and 5 μl of TEMED. Load same amount of protein in each well, and electrophoresis is performed under 100V for 2 hours. Prepare transfer buffer (10 mM CAPS-NaOH, 10% methanol, pH 11.0), and use methanol to rinse PVDF transfer membrane. After electrophoresis is complete, remove SDS-PAGE gel, cover the gel and PVDF membrane with transfer buffer rinsed 3 MM paper. Put it into transfer tank full of transfer buffer, electrophoresis under 500 mA for 1 hour. Take transfer membrane out, block it with 5% skim milk in TBST (20 mM Tris, 137 mM NaCl, 0.01% Tween-20), and wash it with TBST briefly. Add primary antibody for 2-hour reaction, wash membrane with TBST for three times, 15 minutes each. Add appropriate amount of secondary antibody for 1 hour, wash membrane with TBST for three times, 15 minutes each. In the end, evenly cover ECL on the transfer membrane, place membrane in the film cassette, and expose it to X-ray film. Develop the film for analysis.
(§5) Analyze cells of β-asarone supplement for 3 days by western analysis. The expression of PPARγ from cells treated with β-asarone at concentration of 0.03, 0.06, and 0.13 mM is 97%, 117%, and 111% relative to its normal differentiated control with no significant difference. When β-asarone reaches 0.25 mM, the expression of PPARγ reduces to 45% relative to its control (FIG. 12). In terms of another differentiation marker gene C/EBPα, the expression of C/EBPα treated with β-asarone at concentrations of 0.03 and 0.06 mM is 113% and 77% relative to its control with no statistical difference. However, when β-asarone reaches 0.13 mM and 0.25 mM, the expression of C/EBPα reduces to 43% and 33% relative to its control (FIG. 13).

PPARγ [6] = experiment: PPARγ protein expression by western blot in 3T3-L1 cell; details: 3 days, α-tubulin internal control
Procedure: as §4, §5

C/EBPα [7] = experiment: C/EBPα mRNA expression by RT-PCR in 3T3-L1 cell; details: 3 days, GAPDH internal control
Procedure: as §1, §2, §3

C/C=C/c1cc(OC)c(OC)cc1OC (single isomer, unassigned) [α-asarone, reference compound]
cell viability rate relative to normal differentiated control (3T3-L1 adipose cell [1]): 78%
triglyceride content relative to normal differentiation control (3T3-L1 adipose cell [2]; 0.015 mM): 107%
triglyceride content relative to normal differentiation control (3T3-L1 adipose cell [2]; 0.03 mM): 106%
triglyceride content relative to normal differentiation control (3T3-L1 adipose cell [2]; 0.06 mM): 99%
triglyceride content relative to normal differentiation control (3T3-L1 adipose cell [2]; 0.13 mM): 104%
triglyceride content relative to normal differentiation control (3T3-L1 adipose cell [2]; 0.25 mM): 105%

C/C=C\c1cc(OC)c(OC)cc1OC (single isomer, unassigned) [β-asarone]
oil red staining, red oil covered area (3T3-L1 adipose cell [3]): red oil covered area is decreasing
PPARγ mRNA expression relative to normal differentiated control (PPARγ [4]; 0.03 mM): 96%
PPARγ mRNA expression relative to normal differentiated control (PPARγ [4]; 0.06 mM): 94%
PPARγ mRNA expression relative to normal differentiated control (PPARγ [4]; 0.13 mM): 90%
cell viability rate relative to normal differentiated control (3T3-L1 adipose cell [1]): 79%
C/EBPα protein expression relative to its control (C/EBPα [5]; 0.03 mM): 113%
C/EBPα protein expression relative to its control (C/EBPα [5]; 0.06 mM): 77%
C/EBPα protein expression relative to its control (C/EBPα [5]; 0.25 mM): 33%
triglyceride content relative to normal differentiation control (3T3-L1 adipose cell [2]; 0.015 mM): 101%
triglyceride content relative to normal differentiation control (3T3-L1 adipose cell [2]; 0.03 mM): 90%
triglyceride content relative to normal differentiation control (3T3-L1 adipose cell [2]; 0.06 mM): 91%
triglyceride content relative to normal differentiation control (3T3-L1 adipose cell [2]; 0.13 mM): 66%
triglyceride content relative to normal differentiation control (3T3-L1 adipose cell [2]; 0.25 mM): 47%
PPARγ protein expression relative to normal differentiated control (PPARγ [6]; 0.03 mM): 97%
PPARγ protein expression relative to normal differentiated control (PPARγ [6]; 0.06 mM): 117%
PPARγ protein expression relative to normal differentiated control (PPARγ [6]; 0.13 mM): 111%
C/EBPα mRNA expression relative to normal differentiated control (C/EBPα [7]; 0.03 mM): 99%
C/EBPα mRNA expression relative to normal differentiated control (C/EBPα [7]; 0.06 mM): 94%
C/EBPα mRNA expression relative to normal differentiated control (C/EBPα [7]; 0.13 mM): 96%
